Data set [1] has as its target β-amyloid (AD brain homogenates) (Homo sapiens, UniProt P05067). In words: Competitive binding assay with [3H]PIB in AD brain homogenates. How it is done:
Binding was assayed in 12×75 mm borosilicate glass tubes. […] The resulting mixture was incubated at 37° C. for 1 h, and the bound and free radioligands were separated by rapid vacuum filtration through Whatman GF/B glass filter paper using a Brandel M-24R cell harvest and rapidly washed three times at room temperature with PBS. The filters containing the bound radioactivity were transferred to special vials containing 3 ml of universal scintillation fluid. Vials were counted using Beckman LS6500 multi-purpose scintillation counter. Specific binding was estimated as the difference between total and nonspecific binding. Under the assay conditions, the specifically bound fraction was less than 15% of the total radioactivity. The results were subjected to nonlinear regression analysis using software GraphPad Prism by which Kd and Ki values were calculated.
The postmortem brain tissues were obtained from well-defined AD patients. The gray matter was then carefully separated from white matter at autopsy and kept in −70° C. The fresh frozen gray matter was then homogenized by milling it thoroughly in a mortar in the presence of liquid nitrogen. The homogenates were then prepared in phosphate-buffered saline (PBS, pH 7.4) at a concentration of approximately 400 mg tissue/ml, aliquoted into 1-ml portions, and stored
According to the in vitro binding assays, functional groups have moderate effects on the binding affinity. […] In addition, methylation of the amino group increased the binding affinity.

Data set [2] can be described thus: Storage stability of the radioligand. The format is physicochemical. As for the experimental part:
20-30% after HPLC purification. [^125I] 18 was obtained with a radiochemical purity over 98% and a specific activity near the theoretical limit (80 TBq/mmol) based on the no-carrier added sodium [^125I] iodide. The radiochemical identity of [^125I] 18 was verified by co-elution with the non-radioactive cold standard 18 on HPLC profiles. [^125I] 18 was stable enough to be kept for up to 8 h at room temperature and for up to 2 months in the refrigerator.

Data set [3] in a line: Brain uptake in normal mice after iv injection. The format is in vivo, mice (Swiss-Webster). The note with it: for Brain uptake in mice, 2 min. / Brain uptake in mice, 30 min. / Brain uptake in mice, 60 min.: n = 3, iv tail vein, 0.185 MBq; for Brain uptake in mice, 2 min.: 2 min postinjection; for Brain uptake in mice, 30 min.: 30 min postinjection; for Brain uptake in mice, 60 min.: 60 min postinjection. As for the experimental part:
The radiolabeled ligand [^125I] 18 eluted from C-18 Sep-Pak™ plus cartridge was dissolved in a mixture consisting of saline (2 ml, 9 mg/ml), ethylene glycol (2 ml), ethanol (0.7 ml), and HCl (0.3 ml, […]). Under anesthesia, 0.1 ml of the above solution containing 0.185 MBq of radioactive tracer was administered to the mice through a tail vein injection (Swiss-Webster, n=3, 2 months old). The mice were then sacrificed by a heart puncture at 2, 30, and 60 min postinjection. The brain was rapidly removed, weighed, and counted. The uptake of brain was expressed as percentage of injection dose per gram.
For potential in vivo imaging studies, we radiolabeled compound […] with ^125I for brain uptake studies. Following a single iv injection of [^125I] 18 ([…], 0.185 MBq), the brain permeability was evaluated in normal mice. The brain radioactivity concentration of [^125I] 18 was determined at 2, 30, and 60 min postinjection. […] The initial brain uptake was 3.71±0.63% ID/g at 2 min postinjection, a level that is considered for potential clinical imaging studies. The brain radioactivity concentration decreased sharply to 0.78±0.14% ID/g at 30 min and 0.43±0.12% ID/g at 60 min, with a 2-to-30 min ratio of 5. […] 18 was just as low as it rapidly clears from the normal mouse brain in the absence of amyloid deposits.

A short description of data set [4]: Partition coefficient determination (n-octanol/PBS). As to conditions: n-octanol / PBS 0.1 M pH 7.4, room temperature, triplicate. The class given is physicochemical. As for the experimental part:
Partition coefficients were measured by mixing [^125I] 18 (10 μl, RCP>98%, approximately 50,0000 cpm) with sodium phosphate buffer (PBS, 3 g, 0.1 M, pH 7.4) and
n-octanol (3 g, 3.65 ml) in test tubes. The tubes were vortexed for 3 min (1 min 3×) at room temperature followed by centrifugation at 3500 rpm for 5 min. Then 1 ml of buffer and 1 ml of n-octanol were taken out, weighed, and counted. The partition coefficient was determined by calculating the ratio of cpm/g of n-octanol to that of PBS and expressed as logP oct=log [cpm/g (n-octanol)/cpm/g(PBS)]. Another 2 ml from the rest of n-octanol layer was taken out and repartitioned in a tube previously containing 3 g PBS and 1.65 ml of n-octanol until consistent partitions of the coefficient values were obtained. All assays were performed in triplicate.
Based on the conventional octanol-water partition measurement, the lipophilicity of [^125I] 18 was determined in terms of partition coefficients (logP oct). The logP oct of [^125I] 18 was found at 2.70 and the logP oct values of other dibenzothiazole derivatives were then estimated based on coefficients determined by Hansch and Leo (A substituent Constants for Correlation Analysis in Chemistry and Biology (1979) 1st ed.).

Chain of β-amyloid (AD brain homogenates) (P05067 672-711 limits assumed): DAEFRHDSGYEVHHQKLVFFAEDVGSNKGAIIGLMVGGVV

The Ki is a measure of affinity in units of concentration, obtained from inhibition or displacement. Take `Nc1ccc(-c2nc3ccc(-c4nc5ccccc5s4)cc3s2)cc1` [Compound 10]: the Ki in data set [1] lay within 6.8 to 36 nM.

On to `Nc1ccc(-c2nc3ccc(-c4nc5ccc(Cl)cc5s4)cc3s2)cc1` [Compound 11], for which the Ki in data set [1] is 6.8 to 36 nM.

In turn, `Nc1ccc(-c2nc3ccc(-c4nc5ccc(F)cc5s4)cc3s2)cc1` [Compound 12] showed a Ki in data set [1] of 6.8 to 36 nM.

The compound `COc1ccc2nc(-c3ccc4nc(-c5ccc(N)cc5)sc4c3)sc2c1` [Compound 13] showed a Ki in data set [1] of 6.8 to 36 nM.

Compound `CNc1ccc(-c2nc3ccc(-c4nc5ccccc5s4)cc3s2)cc1` [Compound 14] had an inhibition constant Ki in data set [1] of 6.8 to 36 nM.

With `CNc1ccc(-c2nc3ccc(-c4nc5ccc(Cl)cc5s4)cc3s2)cc1` [Compound 15], the Ki in data set [1] fell in the range of 6.8 to 36 nM.

For the compound `CNc1ccc(-c2nc3ccc(-c4nc5ccc(F)cc5s4)cc3s2)cc1` [Compound 16, [4-(6-fluoro-[2,60]dibenzothiazolyl-20-yl)-phenyl]-methylamine], the inhibitory constant (Ki) in data set [1] is 6.8 to 36 nM.

Regarding `CN(C)c1ccc(-c2nc3ccc(-c4nc5ccc(F)cc5s4)cc3s2)cc1` [Compound 17, [4-(6-fluoro-[2,60]dibenzothiazolyl-20-yl)-phenyl]-dimethylamine], the inhibitory constant (Ki) in data set [1] was 6.8 to 36 nM.

In turn, `Nc1ccc(-c2nc3ccc(-c4nc5ccccc5s4)cc3s2)cc1I` [Compound 18, 4-[2,6′]dibenzothiazolyl-2′-yl-2-iodo-phenylamine] had a Ki in data set [1] of 6.8 to 36 nM.

In general, logP refers to a log measure of how a compound divides between an organic and an aqueous phase. A low value points to lower lipophilicity. Turning to `Nc1ccc(-c2nc3ccc(-c4nc5ccccc5s4)cc3s2)cc1[125I]` [[^125I]18, 4-[2,6′]dibenzothiazolyl-2′-yl-2-^125I-phenylamine], in data set [2] (in the refrigerator), the “Stability, time it can be kept” value is listed as “up to 2 months”. Further, the “Stability, time it can be kept” value in data set [2] (room temperature) is given as “up to 8 h”. Moreover, the “2-to-30 min ratio of brain radioactivity concentration” value in data set [3] (iv) is reported as 5. Further, in data set [3], the “Brain uptake in mice, 2 min.” value came to 3.71 ± 0.63 % ID/g; the “Brain uptake in mice, 30 min.” value turned out to be 0.78 ± 0.14 % ID/g; the “Brain uptake in mice, 60 min.” value is recorded as 0.43 ± 0.12 % ID/g. Moreover, in data set [3] (listed as [^125I] 18), the “Brain uptake in mice, 2 min.” value was 3.71±0.63 % ID/g; the “Brain uptake in mice, 30 min.” value worked out at 0.78±0.14 % ID/g; the “Brain uptake in mice, 60 min.” value is 0.43±0.12 % ID/g. In data set [4], this compound yielded a lipophilicity (logP) of 2.7.

For the origin of these results see patent US20090123373A1, “AMYLOID-IMAGING AGENTS” (priority 2007, published 2009).
